Results published in patent US5698672A, “Synthetic calcitonin mimetics” (ZymoGenetics, Inc., priority 1995, dated 1997).
[ ]: non-standard residue; d: D form. Aib = CC(C)(N)C(=O)O

Assays:
calcitonin receptor = assay: CRE-luciferase assay for calcitonin mimetics (calcitonin receptor-positive cell line, Hollex-1 or Boris/KZ10); assay type: cell-based; conditions: calcitonin receptor-positive cells; cell line not given; read-out: CRE-Luciferase Induction EC50
From the text: All synthetic calcitonin mimetics are subjected to an assay system that permits rapid identification of substances having selective calcitonin receptor activity on cells expressing the calcitonin receptor. Only those modifications which retain calcitonin-like activity, as assayed by the CRE-luciferase assay for example, are within the scope of this invention. The calcitonin receptor is a member of the G-protein receptor family and transduces signal via activation of adenylate cyclase, leading to elevation of cellular cAMP levels (Lin et al., Science 254:1022-24, 1991). This assay system exploits the receptor's ability to elevate cAMP levels as a way to detect other molecules, not calcitonin, that are able to stimulate the calcitonin receptor and initiate signal transduction.

[1] = system: PTH induced bone resorption in mouse calvariae; assay: Calvarial assay: PTH induced bone resorption, calcium release; assay type: cell-based; conditions: 1 nM PTH 1-34, 72 hours, neonatal mouse calvariae; read-out: Inhibition of Ca++ Release EC50
Method: Calvaria from 4-day old neonatal CD-1 mice (pregnant mice received from Charles River Laboratories, Wilmington, Mass.) were trimmed with fine-tipped scissors to leave the parietal regions, including the sagittal suture. These trimmed bones were placed singly per well into 6-well cell culture cluster plates (Costar, Pleasanton, Calif.) with 1 ml/well of growth medium (DMEM (BioWhittaker, Walkersville, Md.) with 4.5 g/L glucose, 0.29 mg/ml L-glutamine, 1 mM sodium pyruvate, 15% heat-inactivated horse serum, and antibiotics (penicillin-G […], streptomycin […], and neomycin […])), and rocked gently (RedRocker™, model PR50-115V) (Hoefer, San Francisco, Calif.) at 37° C. in a 5% CO2 humidified incubator for 24 hours preincubation.
Following incubation, medium was removed and replaced with 1.5 ml/well of growth medium containing 1 nM parathyroid hormone (PTH) 1-34 (Sigma) to stimulate bone resorption. For evaluation of the ability of synthetic calcitonin mimetics to inhibit PTH induced bone resorption, mimetic compounds in DMSO were added to the growth medium at concentrations ranging from […] (final assay concentration of DMSO less than or equal to 1%). In each experiment human calcitonin (0.02-20 nM, 0.2-2 nM preferred) was added to PTH treated bones as a positive control. […]

[2] = system: osteoclasts in mouse calvariae; assay: Calvaria histology: osteoclast number and size; assay type: cell-based; conditions: PTH induced bone resorption in mouse calvariae
From the text: To confirm the findings in the calvarial bone resorption assay employing calcium release from culture mouse calvariae, selected bones were fixed in 10% neutral buffered formalin and demineralized in 5% formic acid with 5% formalin. The bones were dehydrated through an ascending series of ethanol concentrations, infiltrated in glycol methacrylate, and embedded using a JB-4 embedding kit (PolySciences, Warrington, Pa.) (Liu and Kalu, J. Bone Miner. Res., 5:973-82, 1990). Cross sections of calvariae cut at […] were obtained and stained for tartrate-resistant acid phosphatase (TRAP) activity and counterstained with methyl green and thionin for cell morphology (Liu and Kalu, J. Bone. Miner. Res. 1990, supra). osteoclasts were identified by TRAP stain, multinucleation, large cell size, and irregular cell shape. The number of osteoclasts were counted from endocranial and ectocranial bone surfaces and expressed as number/mm perimeter. The size of all the osteoclasts counted was also measured using a Bone Morphometry program (Lui and Kalu, supra.; Bain et al., J. Bone Miner. Res. 8:435-42, 1993). […] This PTH-induced increase was suppressed by treatment with human calcitonin.
Calcitonin mimetic compounds were evaluated in a similar fashion for their ability to suppress PTH-induced increases in osteoclast number and size. Cell toxicity (or death) was also evaluated morphologically. […]

[3] = target: T1, human calcitonin receptor (Homo sapiens, UniProt P30988); assay: CRE-luciferase induction in Hollex-1 cells (BHK, human calcitonin receptor); assay type: cell-based
T1 construct: expressed in transfected cells; host or cells: BHK 570 derivative KZ10-20-48 (clone Hollex-1)
T1 sequence (P30988 25-474): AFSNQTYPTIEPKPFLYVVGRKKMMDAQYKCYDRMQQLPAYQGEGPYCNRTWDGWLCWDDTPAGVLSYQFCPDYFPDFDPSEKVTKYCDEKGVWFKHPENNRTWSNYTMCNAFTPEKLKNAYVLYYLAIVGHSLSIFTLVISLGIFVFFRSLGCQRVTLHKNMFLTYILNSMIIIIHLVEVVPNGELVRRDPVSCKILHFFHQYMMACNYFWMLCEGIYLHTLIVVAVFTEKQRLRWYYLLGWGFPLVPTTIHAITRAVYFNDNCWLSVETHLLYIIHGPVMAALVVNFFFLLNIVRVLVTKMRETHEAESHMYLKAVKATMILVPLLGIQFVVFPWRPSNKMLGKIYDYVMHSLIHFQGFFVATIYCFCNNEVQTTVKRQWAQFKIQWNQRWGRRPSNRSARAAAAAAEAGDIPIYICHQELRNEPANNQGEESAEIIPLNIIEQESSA

[4] = system: KZ10-20-48 (BHK 570 cells with CRE-luciferase reporter); assay: CRE-luciferase induction in BHK/KZ10-20-48 cells; assay type: cell-based, hamster; conditions: clone KZ10-20-48; 25 mM forskolin, 4 hours; range 15-25 fold
human glucagon receptor = human glucagon receptor (Homo sapiens, UniProt P47871); conditions: KZ10-20-48/pLJ6-4-25
Sequence of human glucagon receptor (P47871 26-477): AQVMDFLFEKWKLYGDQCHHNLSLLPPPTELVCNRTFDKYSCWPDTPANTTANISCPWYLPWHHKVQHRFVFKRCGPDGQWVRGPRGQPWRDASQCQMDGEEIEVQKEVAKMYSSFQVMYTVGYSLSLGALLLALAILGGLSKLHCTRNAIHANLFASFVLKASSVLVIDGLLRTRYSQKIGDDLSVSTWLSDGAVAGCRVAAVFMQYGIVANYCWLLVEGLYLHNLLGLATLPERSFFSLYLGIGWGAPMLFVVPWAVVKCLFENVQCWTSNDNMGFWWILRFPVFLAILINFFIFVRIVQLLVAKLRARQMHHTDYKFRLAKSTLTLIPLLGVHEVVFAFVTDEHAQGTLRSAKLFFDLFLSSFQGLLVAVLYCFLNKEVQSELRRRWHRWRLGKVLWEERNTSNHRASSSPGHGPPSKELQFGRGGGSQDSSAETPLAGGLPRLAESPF

[5] = system: KZ10-20-48/Zem 228 (calcitonin receptor-negative BHK cells); assay: CRE-luciferase induction in receptor-negative KZ10-20-48/Zem 228 cells; conditions: Mesocricetus auratus, read-out: EC50, CRE-luciferase induction
[6] = target: hamster calcitonin receptor (Mesocricetus auratus, UniProt A0A3Q0D7K7); assay: CRE-luciferase induction in Boris/KZ10-3 cells (hamster calcitonin receptor)
Sequence of hamster calcitonin receptor (A0A3Q0D7K7 entry or part of it): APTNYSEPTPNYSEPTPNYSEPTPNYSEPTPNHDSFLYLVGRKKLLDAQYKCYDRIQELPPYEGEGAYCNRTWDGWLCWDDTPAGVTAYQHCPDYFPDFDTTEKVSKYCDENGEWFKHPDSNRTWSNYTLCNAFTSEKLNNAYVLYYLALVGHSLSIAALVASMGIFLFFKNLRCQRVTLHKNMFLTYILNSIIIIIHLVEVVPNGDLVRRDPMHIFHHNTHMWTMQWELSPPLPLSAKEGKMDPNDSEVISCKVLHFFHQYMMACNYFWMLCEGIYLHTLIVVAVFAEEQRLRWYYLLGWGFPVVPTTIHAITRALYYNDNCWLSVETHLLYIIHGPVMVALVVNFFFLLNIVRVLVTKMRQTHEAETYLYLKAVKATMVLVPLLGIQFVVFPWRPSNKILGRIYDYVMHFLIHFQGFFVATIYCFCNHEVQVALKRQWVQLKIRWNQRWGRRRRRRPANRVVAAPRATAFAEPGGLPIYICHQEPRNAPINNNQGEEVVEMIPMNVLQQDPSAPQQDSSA

EC50 (calcitonin receptor) [µM]	EC50 [1] [µM]	Compound	Histology [2]	EC50 [3] [µM]	induction of CRE-luciferase [4] [fold]	induction of luciferase (human glucagon receptor) [fold]	EC50 [5] [µM]	induction of luciferase [6] [fold]
2.28	36	Ac-W[Aib]Q[Aib]IT[Aib]L[Aib]PQ[Aib]PF-OH [Synthetic 2807]	Inhibitory					
		C=C[C@@]1(C)CC(=O)[C@]2(O)[C@@]3(C)[C@@H](O)CCC(C)(C)[C@@H]3[C@H](O)[C@H](OC(C)=O)[C@@]2(C)O1 [forskolin]		1.2	20	35	0.6	25
